{"source": "patent US20260284209A1", "about": "“POLYPEPTIDE ADJUVANTS AND USES THEREOF” (BOARD OF REGENTS, THE UNIVERSITY OF TEXAS SYSTEM, priority 2023, published 2026)", "key": {"[1]": {"tested_on": "cGAS-STING, MyD88 and canonical NF-κB pathways in M2 BMDMs", "assay": "Western blotting of cGAS-STING, MyD88 and canonical NF-κB pathways", "type": "cell-based, mouse", "settings": "excessive ER stress induction", "experimental": "A western blot was performed as described in Example 1, to assess whether the cationic polypeptides activate innate immune sensors in APCs."}, "[2]": {"tested_on": "ER stress markers BiP, EIF2α, CHOP, XBP1 in bone marrow-derived macrophages", "assay": "ER stress markers (western blotting, XBP1 RT-qPCR)", "type": "cell-based, mouse", "quoted_text": "M2 BMDMs (1.5×10^7 cells/100 mm^2 petri dish) or cancer cells (2×10^6 cells per 6-well plates) were treated with the experimental solutions. To evaluate inhibitory conditions, cells were pre-treated with CsA (10 μM, TCI America) for 3 h, or co-treated with 4-PBA (5 mM in phosphate-buffered saline [PBS], Tocris Bioscience, USA) and chloroquine (10 μg/mL, Alfa Aesar, USA). Each protein was extracted by using RIPA buffer containing 1% protease inhibitor and 1% phosphatase inhibitor cocktail. Protein concentrations were adjusted to 3 mg/mL by using a BCA kit, with FBS used as a standard. Electrophoresis was carried out by loading proteins (40 μg) into each lane of a sodium dodecyl sulfate-polyacrylamide gel (SDS-PAGE) gel, after which the proteins were transferred to a polyvinylidene fluoride membrane. After blocking, the PVDF membrane was treated with the corresponding primary antibody, and then washed with TBS-T three times before the treatment with the secondary antibody. The blot signals were visualized with a Chemidoc system (ChemiDoc MP imaging system, BioRad, USA)."}}, "data": [{"substance": "tunicamycin", "values": [{"measurement": "activation of MyD88 and STING in macrophages", "setting": "[1]", "value": "inhibited activation of MyD88 and STING in macrophages"}, {"measurement": "ER stress / ER stress markers", "setting": "[2]", "value": "detrimental levels"}]}]}
